From patent publication US8163718B2, “Nucleoside analogues containing phosphonate or phosphonamide groups” (Gilead Sciences, Inc., priority 2008, dated 2012)

These molecules were tested on A549 (assay: Cytostatic cell culture assay (GI50), SRB). Conditions: Homo sapiens, A549, 120 h; 5 days incubation.
Type: cell-based
Source text: (§1) The assay is based on quantification of cell counts by a colorimetric detection of the cell associated proteins. The assay relies on the ability of sulforhodamine B (SRB) to bind to protein components of cells that have been fixed to tissue-culture plates by trichloroacetic acid (TCA). SRB is a bright-pink aminoxanthene dye with two sulfonic groups that bind to basic amino-acid residues under mild acidic conditions, and dissociate under basic conditions. As the binding of SRB is stoichiometric, the amount of dye extracted from stained cells is directly proportional to the cell mass.
(§2) Cell lines: All cell lines were obtained from ATCC (Manassas, Va.). Cultivation media containing Glutamax, and trypsin were purchased from Invitrogen (Carlsbad, Calif.). Doxorubicin, Clofarabine, TCA and SRB were from Sigma-Aldrich (St. Louis, Mo.). Gemcitabine was obtained from Moravek Biochemicals (Brea, Calif.)
(§3) • 1. Trypsinize the sub-confluent cells, count them, and adjust the cell concentrations according to the cell counts listed in Table 1. • 2. Distribute the cells into the 96-well plates in 150 μL of media. Incubate the plates overnight in humidified CO2 incubator at 37° C. • 3. Fix one plate of each cell line with TCA. Discard the cultivation media from the plates by flicking them gently and add 100 ul cold 10% (vol/vol) TCA to each well. Incubate the plates at 4 degree refrigerator for 1 hour. Discard TCA from the plates by flicking them gently. Rinse plates four times in a washing basin containing tap water. Store the plates at room temperature. These plates represent cell counts on day zero. • 4. Prepare a set of medium solutions containing various concentrations of tested compounds by making 5-fold serial dilutions in 96-well plate. Add 50 μL of the diluted compounds per well. Include controls with untreated cells and cells treated with doxorubicin, clofarabine and gemcitabine. • 5. Incubate the plates for 5 days at 37° C. • 6. Fix the plates with TCA. Discard the cultivation media from the plates by flicking them gently and add 100 ul cold 10% (vol/vol) TCA to each well. Incubate the plates at 4 degree refrigerator for 1 hour. Discard TCA from the plates by flicking them gently. Rinse plates four times in a washing basin containing tap water. • 7. Remove excess water by tapping the plates face down, gently on a paper towel. Allow the plates to air-dry at room temperature. • 8. Add 100 ul of 0.057% SRB solution in 1% (vol/vol) acetic acid to each well of the plates fixed with TCA on day zero and five. Leave at room temperature for 30 minutes. • 9. Flick the plates gently to discard SRB. Rinse the plates four times with 1% (vol/vol) Acetic Acid. • 10. Store the plates at 37 degree incubator to facilitate faster drying. • 11. Once the plates are completely dry, add 200 ul of 10 mM Tris base solution (pH 10.5) to each well. Leave at room temperature for 30 minutes for SRB to solubilize. • 12. Measure the OD at 500 nm in a microplate reader • 13. Calculate the percentage of cell-growth inhibition using the next formula: % of control cell growth=100×(ODsample−mean ODday0)/(ODneg control−mean ODday0)
(§4) For GI50 determination, plot a dose-response curve between the compound concentration and percent of growth inhibition. GI50 values can be derived by fitting dose-response curves using sigmoidal dose response equation.

| SMILES | GI50 |
| --- | --- |
| CCCOc1nc(N)nc2c1ncn2CCOCP(=O)(N[C@@H](C)C(=O)OC(C)C)Oc1ccccc1 (stereo partly shown) [Example 54] | 0.317 µM |
| CCCOc1nc(N)nc2c1ncn2CCOCP(=O)(Oc1ccccc1)N1CCC[C@H]1C(=O)OCc1ccccc1 (stereo partly shown) [Example 56] | 2.13 µM |

More lines, now with the values ahead:

| GI50 | SMILES |
| --- | --- |
| 3.82 µM | CCCOc1nc(N)nc2c1ncn2CCOCP(=O)(N1CCC[C@H]1C(=O)OC(C)C)N1CCC[C@H]1C(=O)OC(C)C [Example 24] |
| 3.19 µM | CCOC(=O)[C@H](C)NP(=O)(COCCn1cnc2c(OC3CCCCC3)nc(N)nc21)N[C@@H](C)C(=O)OCC [Example 39] |
| 3.06 µM | Nc1nc(OC2CCCC2)c2ncn(CCOCP(=O)(O)O)c2n1 [Example 10, [2-(2-Amino-6-cyclopentyloxy-purin-9-yl)-ethoxymethyl]-phosphonic acid] |

Each molecule was assayed on BT-549 (assay: Cytostatic cell culture assay (GI50), SRB). Conditions: Homo sapiens, BT-549, 120 h; 5 days incubation.
Type: cell-based
Source text: as §1, §2, §3, §4

| SMILES | GI50 |
| --- | --- |
| CCCOc1nc(N)nc2c1ncn2CCOCP(=O)(N[C@@H](C)C(=O)OC(C)C)Oc1ccccc1 (stereo partly shown) [Example 54] | 1770 nM |
| CCCOc1nc(N)nc2c1ncn2CCOCP(=O)(Oc1ccccc1)N1CCC[C@H]1C(=O)OCc1ccccc1 (stereo partly shown) [Example 56] | 1090 nM |

Further lines, results first:

| GI50 | SMILES |
| --- | --- |
| 386 nM | CCCOc1nc(N)nc2c1ncn2CCOCP(=O)(N1CCC[C@H]1C(=O)OC(C)C)N1CCC[C@H]1C(=O)OC(C)C [Example 24] |
| 2650 nM | CCOC(=O)[C@H](C)NP(=O)(COCCn1cnc2c(OC3CCCCC3)nc(N)nc21)N[C@@H](C)C(=O)OCC [Example 39] |
| 2990 nM | Nc1nc(OC2CCCC2)c2ncn(CCOCP(=O)(O)O)c2n1 [Example 10, [2-(2-Amino-6-cyclopentyloxy-purin-9-yl)-ethoxymethyl]-phosphonic acid] |

The molecules below were run on Du-145 (assay: Cytostatic cell culture assay (GI50), SRB). Conditions: Homo sapiens, DU-145, 120 h; 5 days incubation.
Type: cell-based
Source text: as §1, §2, §3, §4

| SMILES | GI50 |
| --- | --- |
| CCCOc1nc(N)nc2c1ncn2CCOCP(=O)(N[C@@H](C)C(=O)OC(C)C)Oc1ccccc1 (stereo partly shown) [Example 54] | 65 nM |
| CCCOc1nc(N)nc2c1ncn2CCOCP(=O)(Oc1ccccc1)N1CCC[C@H]1C(=O)OCc1ccccc1 (stereo partly shown) [Example 56] | 722 nM |

Next, values leading:

| GI50 | SMILES |
| --- | --- |
| 138 nM | CCCOc1nc(N)nc2c1ncn2CCOCP(=O)(N1CCC[C@H]1C(=O)OC(C)C)N1CCC[C@H]1C(=O)OC(C)C [Example 24] |
| 102 nM | CCOC(=O)[C@H](C)NP(=O)(COCCn1cnc2c(OC3CCCCC3)nc(N)nc21)N[C@@H](C)C(=O)OCC [Example 39] |
| 54 nM | Nc1nc(OC2CCCC2)c2ncn(CCOCP(=O)(O)O)c2n1 [Example 10, [2-(2-Amino-6-cyclopentyloxy-purin-9-yl)-ethoxymethyl]-phosphonic acid] |

These molecules were tested on HCT-116 (assay: Cytostatic cell culture assay (GI50), SRB). Conditions: Homo sapiens, HCT-116, 120 h; 5 days incubation.
Type: cell-based
Source text: as §1, §2, §3, §4

| SMILES | GI50 |
| --- | --- |
| CCCOc1nc(N)nc2c1ncn2CCOCP(=O)(N[C@@H](C)C(=O)OC(C)C)Oc1ccccc1 (stereo partly shown) [Example 54] | 840 nM |
| CCCOc1nc(N)nc2c1ncn2CCOCP(=O)(Oc1ccccc1)N1CCC[C@H]1C(=O)OCc1ccccc1 (stereo partly shown) [Example 56] | 1930 nM |

More lines, now with the values ahead:

| GI50 | SMILES |
| --- | --- |
| 979 nM | CCCOc1nc(N)nc2c1ncn2CCOCP(=O)(N1CCC[C@H]1C(=O)OC(C)C)N1CCC[C@H]1C(=O)OC(C)C [Example 24] |
| 1480 nM | CCOC(=O)[C@H](C)NP(=O)(COCCn1cnc2c(OC3CCCCC3)nc(N)nc21)N[C@@H](C)C(=O)OCC [Example 39] |
| 1790 nM | Nc1nc(OC2CCCC2)c2ncn(CCOCP(=O)(O)O)c2n1 [Example 10, [2-(2-Amino-6-cyclopentyloxy-purin-9-yl)-ethoxymethyl]-phosphonic acid] |

Each molecule was assayed on HCT-15 (assay: Cytostatic cell culture assay (GI50), SRB). Conditions: Homo sapiens, HCT-15, 120 h; 5 days incubation.
Type: cell-based
Source text: as §1, §2, §3, §4

| SMILES | GI50 |
| --- | --- |
| CCCOc1nc(N)nc2c1ncn2CCOCP(=O)(N[C@@H](C)C(=O)OC(C)C)Oc1ccccc1 (stereo partly shown) [Example 54] | 2.77 µM |
| CCCOc1nc(N)nc2c1ncn2CCOCP(=O)(Oc1ccccc1)N1CCC[C@H]1C(=O)OCc1ccccc1 (stereo partly shown) [Example 56] | 3.86 µM |

The next lines start with the values.

| GI50 | SMILES |
| --- | --- |
| > 10 µM | CCCOc1nc(N)nc2c1ncn2CCOCP(=O)(N1CCC[C@H]1C(=O)OC(C)C)N1CCC[C@H]1C(=O)OC(C)C [Example 24] |
| > 10 µM | CCOC(=O)[C@H](C)NP(=O)(COCCn1cnc2c(OC3CCCCC3)nc(N)nc21)N[C@@H](C)C(=O)OCC [Example 39] |
| 2.38 µM | Nc1nc(OC2CCCC2)c2ncn(CCOCP(=O)(O)O)c2n1 [Example 10, [2-(2-Amino-6-cyclopentyloxy-purin-9-yl)-ethoxymethyl]-phosphonic acid] |

What follows are molecules tested on Hs-578 (assay: Cytostatic cell culture assay (GI50), SRB). Conditions: Hs578, 120 h; 5 days incubation.
Type: cell-based
Source text: as §1, §2, §3, §4

| SMILES | GI50 |
| --- | --- |
| CCCOc1nc(N)nc2c1ncn2CCOCP(=O)(N[C@@H](C)C(=O)OC(C)C)Oc1ccccc1 (stereo partly shown) [Example 54] | 894 nM |
| CCCOc1nc(N)nc2c1ncn2CCOCP(=O)(N1CCC[C@H]1C(=O)OC(C)C)N1CCC[C@H]1C(=O)OC(C)C [Example 24] | 452 nM |
| CCCOc1nc(N)nc2c1ncn2CCOCP(=O)(Oc1ccccc1)N1CCC[C@H]1C(=O)OCc1ccccc1 (stereo partly shown) [Example 56] | 1490 nM |
| CCOC(=O)[C@H](C)NP(=O)(COCCn1cnc2c(OC3CCCCC3)nc(N)nc21)N[C@@H](C)C(=O)OCC [Example 39] | 697 nM |
| Nc1nc(OC2CCCC2)c2ncn(CCOCP(=O)(O)O)c2n1 [Example 10, [2-(2-Amino-6-cyclopentyloxy-purin-9-yl)-ethoxymethyl]-phosphonic acid] | 2260 nM |

These molecules were tested on NCI-H23 (assay: Cytostatic cell culture assay (GI50), SRB). Conditions: Homo sapiens, NCI-H23, 120 h; 5 days incubation.
Type: cell-based
Source text: as §1, §2, §3, §4

| SMILES | GI50 |
| --- | --- |
| CCCOc1nc(N)nc2c1ncn2CCOCP(=O)(N[C@@H](C)C(=O)OC(C)C)Oc1ccccc1 (stereo partly shown) [Example 54] | 67 nM |
| CCCOc1nc(N)nc2c1ncn2CCOCP(=O)(Oc1ccccc1)N1CCC[C@H]1C(=O)OCc1ccccc1 (stereo partly shown) [Example 56] | 389 nM |

Now from value to molecule:

| GI50 | SMILES |
| --- | --- |
| 124 nM | CCCOc1nc(N)nc2c1ncn2CCOCP(=O)(N1CCC[C@H]1C(=O)OC(C)C)N1CCC[C@H]1C(=O)OC(C)C [Example 24] |
| 198 nM | CCOC(=O)[C@H](C)NP(=O)(COCCn1cnc2c(OC3CCCCC3)nc(N)nc21)N[C@@H](C)C(=O)OCC [Example 39] |
| 603 nM | Nc1nc(OC2CCCC2)c2ncn(CCOCP(=O)(O)O)c2n1 [Example 10, [2-(2-Amino-6-cyclopentyloxy-purin-9-yl)-ethoxymethyl]-phosphonic acid] |

Each molecule was assayed on PC3 (assay: Cytostatic cell culture assay (GI50), SRB). Conditions: Homo sapiens, PC-3, 120 h; 5 days incubation.
Type: cell-based
Source text: as §1, §2, §3, §4

| SMILES | GI50 |
| --- | --- |
| CCCOc1nc(N)nc2c1ncn2CCOCP(=O)(N[C@@H](C)C(=O)OC(C)C)Oc1ccccc1 (stereo partly shown) [Example 54] | 472 nM |
| CCCOc1nc(N)nc2c1ncn2CCOCP(=O)(Oc1ccccc1)N1CCC[C@H]1C(=O)OCc1ccccc1 (stereo partly shown) [Example 56] | 1250 nM |

Further lines, results first:

| GI50 | SMILES |
| --- | --- |
| 634 nM | CCCOc1nc(N)nc2c1ncn2CCOCP(=O)(N1CCC[C@H]1C(=O)OC(C)C)N1CCC[C@H]1C(=O)OC(C)C [Example 24] |
| 141 nM | CCOC(=O)[C@H](C)NP(=O)(COCCn1cnc2c(OC3CCCCC3)nc(N)nc21)N[C@@H](C)C(=O)OCC [Example 39] |
| 1010 nM | Nc1nc(OC2CCCC2)c2ncn(CCOCP(=O)(O)O)c2n1 [Example 10, [2-(2-Amino-6-cyclopentyloxy-purin-9-yl)-ethoxymethyl]-phosphonic acid] |
